These results are taken from PubChem BioAssay (NCI).

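Grown in 96-well plates, cells were treated for 48 hours with each compound at five concentrations. Insufficient inhibition: endpoint recorded as highest concentration tested. GI50 marks 50% less growth. TGI denotes the concentration required for complete inhibition of growth.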

This assay has as its system MDA-MB-468 breast. Kind of assay: inhibition of tumour cell growth, NCI panel, 48 h.

Turning to `O=S(=O)(NCCCNc1nccc(-c2[nH]c(-c3ccccc3)nc2-c2ccc(F)c(O)c2)n1)c1ccc(C(F)(F)F)cc1`, the GI50 was 2440 nM and the TGI was 7700 nM.
The matching figures for `CC1(C)OC2C(COS(N)(=O)=O)SC(n3cnc4cncnc43)C2O1` (stereo unspecified): above 100000 nM and above 100000 nM.
The corresponding values for `Cc1ccc(C(C)C)cc1NC(=O)Nc1ccc([N+](=O)[O-])cc1` are 2390 nM and 6820 nM.
The matching figures for `CN1CCN(c2nc(-c3ccncc3)nc3sc4c(c23)CCCCCC4)CC1`: 5200 nM and 20200 nM.
Take `COc1ccc(CCc2cc(OC)c(OC)c(OC)c2)cc1`: the GI50 was 59.9 nM and the TGI is above 100000 nM.
For the compound `CO[C@@]12[C@@H]3NC3CN1C1=C(C(=O)C(N)=C(C)C1=O)[C@@H]2COC(N)=O` (stereo partly specified), the GI50 was 238 nM and the TGI came out at 1280 nM.
The matching figures for `COc1cc(NC(=O)Nc2cnc(Nc3ccc(N4CCOCC4)cc3)nc2Oc2cccc(OC)c2)cc(OC)c1`: 1740 nM and 9540 nM.
The matching figures for `Oc1ccc(Cl)cc1Cc1cc(Cl)ccc1O`: 2190 nM and 7290 nM.
The corresponding values for `Oc1[nH]c2cc(Cl)ccc2c1/C=c1/ccc2c(c1)N=C(c1cc(F)cc(F)c1)N=2` are 2510 nM and 5980 nM.
As to `Cc1cc(C(O)CN(C)C)cc2c1ccc1cc(C(C)C)ccc12` (stereo unspecified), the GI50 is 1850 nM and the TGI stood at 3470 nM.
On to `CCOc1cc(-c2ccc[nH]2)[nH]c1/C=C1\N=C(C)C(C(=O)OC)=C1C`, for which the GI50 is 58.3 nM and the TGI turned out to be 444 nM.
The matching figures for `CC1COCC(C)N1C1=C(Cl)C(=O)c2ccccc2C1=O` (stereo unspecified): 1590 nM and 3280 nM.
The corresponding values for `CC1(C)CC[C@]2(C(N)=O)CC[C@]3(C)C(=CC[C@@H]4[C@@]5(C)C/C(=C/c6ccncc6)C(=O)C(C)(C)[C@@H]5CC[C@]43C)[C@@H]2C1` are 2330 nM and 7440 nM.
Take `O=C(Nc1cccc(-n2cc(-c3ccncc3)c(-c3ccc(O)c(Cl)c3)n2)c1)c1cccc(C(F)(F)F)c1`: the GI50 was 3190 nM and the TGI is above 100000 nM.
With `COc1cccc(/C=C/C(=O)c2cc3c(N)c(C(=O)Nc4cccc5ccccc45)sc3nc2C)c1`, the GI50 is 1070 nM and the TGI amounted to 3000 nM.
The matching figures for `Cc1nc(N)nc2ccccc12`: above 100000 nM and above 100000 nM.
The corresponding values for `CC(=O)Oc1ccc(/C=N/NC(N)=S)nc1` are 2750 nM and 15300 nM.
The corresponding values for `O=C(NCCCCCCCNC(=O)OCc1ccc2c(Cl)cc(Cl)c(O)c2n1)OCc1ccc2c(Cl)cc(Cl)c(O)c2n1` are 389 nM and 1200 nM.
Consider `Nc1[nH]c(=O)ncc1CO`, for which the GI50 was above 100000 nM and the TGI was above 100000 nM.
Consider `O=c1c2ccccc2oc2ccc(OCCCCCCN3CCCCCC3)cc12`, for which the GI50 is 1970 nM and the TGI turned out to be 5870 nM.
The matching figures for `CO[C@]1(CN2CCN3CCCC[C@@H]3C2)/C=C/C[C@H](C)[C@@H](C)S(=O)(=O)NC(=O)c2ccc3c(c2)N(C[C@@H]2CC[C@H]21)C[C@@]1(CCCc2cc(Cl)ccc21)CO3`: 166 nM and 1240 nM.
On to `COc1cc([N+](=O)[O-])c2ncccc2c1[N+](=O)[O-]`, for which the GI50 is 1720 nM and the TGI stood at 3670 nM.
The corresponding values for `CCC(CC(C)C)Nc1ccc(NC(CC)CC(C)C)cc1` (stereo unspecified) are 11700 nM and 24000 nM.
As for `Cc1cc(Cl)ccc1NS(=O)(=O)c1ccc(-c2cnc(C3CC3)o2)cc1`, the GI50 is 86.1 nM and the TGI came out at 13700 nM.
With `C[C@@H](Nc1c(C#N)cnc2ccc(-c3cnc(N)nc3)cc12)c1ccccc1`, the GI50 is 722 nM and the TGI was 5800 nM.
Take `CC/C=C\C/C=C\C[C@H](O)C/C=C1/C(=O)C=C[C@@H]1C/C=C\CCCC(=O)OC`: the GI50 was 1470 nM and the TGI was 3160 nM.
The matching figures for `O=C(Nc1ccccc1C(=O)N/N=C(\c1ccccc1)c1ccccn1)c1ccc(F)cc1`: 192 nM and 1110 nM.
The corresponding values for `C=CC1CN2CCC1CC2C(O)c1ccnc2ccccc12` (stereo unspecified) are above 100000 nM and above 100000 nM.
